How the values were obtained:
human skin [1] = system: human skin
skin [2] = experiment: skin irritation (α), electrotransport of placebo drug (sodium chloride), hydrocortisone in the cathodic reservoir (Example IV); format: in vivo
Description: In vivo electrically assisted delivery of a placebo drug (sodium chloride) with various liquid solvents was accomplished both with and without co-delivery of an anti-inflammatory agent (hydrocortisone) using electrotransport systems substantially similar to those described in Example II. Four different electrotransport system configurations were constructed.
The anode material used in each of the systems was silver foil and the cathode material used in each of the systems was silver chloride. The size of the gels and the applied current levels were the same as in Example II.

human skin [3] = experiment: skin irritation (α), electrotransport of placebo drug (sodium chloride) in 50% propylene glycol with and without hydrocortisone (Example V); format: in vivo, human volunteer; conditions: FIG. 8; 0.5% (w/v) hydrocortisone in 50% propylene glycol, cathodic and anodic reservoirs; 100 μA/cm^2, 3 h
Method: In vivo electrically assisted delivery of a placebo drug (sodium chloride), with a liquid solvent in which hydrocortisone has good solubility, was accomplished both with and without co-delivery of hydrocortisone using electrotransport systems substantially similar to those described in Example II, and having anodic/cathodic reservoir gels of the following formulations: […]
An electrotransport system was constructed having anodic and cathodic reservoirs comprised of 350 μl of gel formulation I. This system was applied on the left forearm of a human volunteer. The skin contact area of each electrode gel was 2 cm^2. The anode material used in the systems was silver foil and the cathode material used in each of the systems was silver chloride. The electrodes were connected to a galvanostat preset to deliver a constant current of 100 μA/cm^2. Simultaneously another electrotransport system with similar size and current density, but whose anodic and cathodic reservoirs were comprised of 350 μl of gel formulation II was applied on the right forearm of the same volunteer. The systems were worn for 3 hours. After removal, skin irritation (α) was monitored using the Minolta Chroma Meter.

skin [4] = conditions: prolonged exposure; cited from earlier work
skin [5] = conditions: otherwise equivalent reservoirs; cited from earlier work
[6] = water; cited from earlier work
[7] = metoclopramide blood plasma concentrations during/after electrotransport delivery with and without hydrocortisone (HPLC); format: in vivo, human volunteers; conditions: FIG. 3; 10% MCP, 0.5% HC in anodic reservoir vs MCP alone; 100 μA/cm^2, 4 h
Description: MCP is a water soluble drug salt.

SMILES	skin irritation (α) vs. anodic reservoirs containing no hydrocortisone (human skin [1]; FIG. 2, 0.5% HC with 10% MCP in anodic reservoir, 4 h wear, 1, 4, 24, 48 h after removal)	reduction of erythema of the skin in contact with the cathodic reservoir (skin [2]; 0.25 mg/mL hydrocortisone in water)	reddening of the skin in contact with the cathodic reservoir (skin [2]; FIG. 7, system 1: 5 mg/mL hydrocortisone, 40% ethanol, vs 40% ethanol without hydrocortisone)	erythema values, System 3 vs System 4 (skin [2]; System 3: 0.25 mg/mL hydrocortisone in water, no ethanol)	erythema compared to reservoirs containing no hydrocortisone (human skin [3])	local side effects such as skin thinning (skin [4])	electroosmotic flux from a cathodic reservoir vs. equivalent anodic reservoir (skin [5])	solubility in words [6]	skin irritation caused by the drug (human skin [1]; in vivo)	effect of addition of hydrocortisone on delivery of metoclopramide into the bloodstream [7]
C[C@]12CCC(=O)C=C1CC[C@@H]1[C@@H]2C(O)C[C@@]2(C)[C@H]1CC[C@]2(O)C(=O)CO (stereo partly shown) [hydrocortisone, 11,17,21-trihydroxypregn-4-ene-3,20-dione]	less skin irritation	insufficient to reduce erythema	significant reduction in the reddening of the skin	substantially the same (i.e., at most only about one α unit apart)	substantially less erythema	does not result in unacceptable local side effects such as skin thinning	substantially lower	–	–	–
CCN(CC)CCNC(=O)c1cc(Cl)c(N)cc1OC [metoclopramide HCI]	–	–	–	–	–	–	–	water soluble	skin irritating drug	does not significantly affect the delivery of metoclopramide into the bloodstream
